Experimental data taken from the supplement of paper PMC10307832.

Columns and labels:
Assay in all cases: relative viability (nuclei count vs DMSO), 5 days (fraction); higher = more cells survive
NCI-H3122 = system: NCI-H3122
Outline: (§1)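 Cells from lung cancer lines were seeded into 1536-well plates and, one day later, dosed by pin tool. Treatments were either a single drug or a fixed dose of an anchor drug with five library-drug doses (not always all listed) in √10 steps. After 5 days, nuclei were stained in a one-step fixation (final 0.05% Triton X-100, 1% formaldehyde, 1 ug/ml Hoechst) and counted on 4× images, and relative viability is the treated-to-vehicle nuclei ratio, as the median of duplicate plates.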

NCI-H1703 = system: NCI-H1703
Outline: as §1

HCC-44 = system: HCC-44
Outline: as §1

LOU-NH91 = system: LOU-NH91
Outline: as §1

LXF-289 = system: LXF-289
Outline: as §1

NCI-H1648 = system: NCI-H1648
Outline: as §1

HCC-366 = system: HCC-366
Outline: as §1

NCI-H1437 = system: NCI-H1437
Outline: as §1

NCI-H2085 = system: NCI-H2085
Outline: as §1

IA-LM = system: IA-LM
Outline: as §1

## Cc1sc2c(c1C)C(c1ccc(Cl)cc1)=N[C@@H](CC(=O)OC(C)(C)C)c1nnc(C)n1-2 [JQ1] + NC(=O)Nc1cc(-c2cccc(F)c2)sc1C(=O)N[C@H]1CCCNC1 [AZD7762] (partner 0.2 µM)
NCI-H3122; first compound 0.04 µM
  relative viability: 1.04
NCI-H3122; first compound 0.1265 µM
  relative viability: 0.965
NCI-H3122; first compound 0.4 µM
  relative viability: 0.971
NCI-H3122; first compound 1.265 µM
  relative viability: 0.883
NCI-H3122; first compound 4 µM
  relative viability: 0.693
NCI-H1703; first compound 0.04 µM
  relative viability: 0.111
NCI-H1703; first compound 0.1265 µM
  relative viability: 0.13
NCI-H1703; first compound 0.4 µM
  relative viability: 0.155
NCI-H1703; first compound 1.265 µM
  relative viability: 0.108
NCI-H1703; first compound 4 µM
  relative viability: 0.118
HCC-44; first compound 0.04 µM
  relative viability: 0.987
HCC-44; first compound 0.1265 µM
  relative viability: 1.14
HCC-44; first compound 0.4 µM
  relative viability: 1.06
HCC-44; first compound 1.265 µM
  relative viability: 1.09
HCC-44; first compound 4 µM
  relative viability: 0.76
LOU-NH91; first compound 0.04 µM
  relative viability: 0.759
LOU-NH91; first compound 0.1265 µM
  relative viability: 0.609
LOU-NH91; first compound 0.4 µM
  relative viability: 0.664
LOU-NH91; first compound 1.265 µM
  relative viability: 0.379
LOU-NH91; first compound 4 µM
  relative viability: 0.407
LXF-289; first compound 0.04 µM
  relative viability: 1.12
LXF-289; first compound 0.1265 µM
  relative viability: 1.07
LXF-289; first compound 0.4 µM
  relative viability: 0.851
LXF-289; first compound 1.265 µM
  relative viability: 1.02
LXF-289; first compound 4 µM
  relative viability: 0.512
NCI-H1648; first compound 0.04 µM
  relative viability: 0.862
NCI-H1648; first compound 0.1265 µM
  relative viability: 0.906
NCI-H1648; first compound 0.4 µM
  relative viability: 0.579
NCI-H1648; first compound 1.265 µM
  relative viability: 0.376
NCI-H1648; first compound 4 µM
  relative viability: 0.388
HCC-366; first compound 0.04 µM
  relative viability: 0.305
HCC-366; first compound 0.4 µM
  relative viability: 0.23
HCC-366; first compound 1.265 µM
  relative viability: 0.146
HCC-366; first compound 4 µM
  relative viability: 0.0976
NCI-H1437; first compound 0.04 µM
  relative viability: 1.11
NCI-H1437; first compound 0.1265 µM
  relative viability: 0.979
NCI-H1437; first compound 0.4 µM
  relative viability: 0.847
NCI-H1437; first compound 1.265 µM
  relative viability: 0.657
NCI-H1437; first compound 4 µM
  relative viability: 0.445
NCI-H2085; first compound 0.04 µM
  relative viability: 0.935
NCI-H2085; first compound 0.1265 µM
  relative viability: 0.822
NCI-H2085; first compound 0.4 µM
  relative viability: 1.06
NCI-H2085; first compound 1.265 µM
  relative viability: 0.446
NCI-H2085; first compound 4 µM
  relative viability: 0.318

## Cc1sc2c(c1C)C(c1ccc(Cl)cc1)=N[C@@H](CC(=O)OC(C)(C)C)c1nnc(C)n1-2 [JQ1] + O=C(CCCCCCC(=O)Nc1ccccc1)NO [Vorinostat] (partner 1 µM)
NCI-H3122; first compound 0.04 µM
  relative viability: 1.01
NCI-H3122; first compound 0.1265 µM
  relative viability: 0.506
NCI-H3122; first compound 0.4 µM
  relative viability: 1.02
NCI-H3122; first compound 1.265 µM
  relative viability: 1.04
NCI-H3122; first compound 4 µM
  relative viability: 0.664
HCC-44; first compound 0.04 µM
  relative viability: 1.12
HCC-44; first compound 0.1265 µM
  relative viability: 1.03
HCC-44; first compound 0.4 µM
  relative viability: 0.965
HCC-44; first compound 1.265 µM
  relative viability: 0.788
HCC-44; first compound 4 µM
  relative viability: 0.578
LOU-NH91; first compound 0.04 µM
  relative viability: 0.912
LOU-NH91; first compound 0.1265 µM
  relative viability: 0.718
LOU-NH91; first compound 0.4 µM
  relative viability: 0.442
LOU-NH91; first compound 1.265 µM
  relative viability: 0.388
LOU-NH91; first compound 4 µM
  relative viability: 0.402
IA-LM; first compound 0.04 µM
  relative viability: 0.925
IA-LM; first compound 0.1265 µM
  relative viability: 0.888
IA-LM; first compound 0.4 µM
  relative viability: 0.197
IA-LM; first compound 1.265 µM
  relative viability: 0.0917
IA-LM; first compound 4 µM
  relative viability: 0.0701
LXF-289; first compound 0.04 µM
  relative viability: 0.765
LXF-289; first compound 0.1265 µM
  relative viability: 0.693
LXF-289; first compound 0.4 µM
  relative viability: 0.665
LXF-289; first compound 1.265 µM
  relative viability: 0.582
LXF-289; first compound 4 µM
  relative viability: 0.577
NCI-H1648; first compound 0.04 µM
  relative viability: 0.392
NCI-H1648; first compound 0.1265 µM
  relative viability: 0.41
NCI-H1648; first compound 0.4 µM
  relative viability: 0.264
NCI-H1648; first compound 1.265 µM
  relative viability: 0.234
NCI-H1648; first compound 4 µM
  relative viability: 0.198
HCC-366; first compound 0.04 µM
  relative viability: 0.409
HCC-366; first compound 0.4 µM
  relative viability: 0.138
HCC-366; first compound 1.265 µM
  relative viability: 0.0461
HCC-366; first compound 4 µM
  relative viability: 0.042
NCI-H1437; first compound 0.04 µM
  relative viability: 0.816
NCI-H1437; first compound 0.1265 µM
  relative viability: 0.736
NCI-H1437; first compound 0.4 µM
  relative viability: 0.686
NCI-H1437; first compound 1.265 µM
  relative viability: 0.395
NCI-H1437; first compound 4 µM
  relative viability: 0.34
NCI-H2085; first compound 0.04 µM
  relative viability: 0.769
NCI-H2085; first compound 0.1265 µM
  relative viability: 0.601
NCI-H2085; first compound 0.4 µM
  relative viability: 0.639
NCI-H2085; first compound 1.265 µM
  relative viability: 0.474
NCI-H2085; first compound 4 µM
  relative viability: 0.398

## COc1cc2nccc(Oc3ccc(NC(=O)Nc4cc(C)on4)c(Cl)c3)c2cc1OC [Tivozanib] + NC(=O)Nc1cc(-c2cccc(F)c2)sc1C(=O)N[C@H]1CCCNC1 [AZD7762] (partner 0.2 µM)
NCI-H3122; first compound 0.005 µM
  relative viability: 0.97
NCI-H3122; first compound 0.01581 µM
  relative viability: 0.876
NCI-H3122; first compound 0.05 µM
  relative viability: 0.974
NCI-H3122; first compound 0.1581 µM
  relative viability: 1.02
NCI-H3122; first compound 0.5 µM
  relative viability: 1.02
NCI-H1703; first compound 0.005 µM
  relative viability: 0.124
NCI-H1703; first compound 0.01581 µM
  relative viability: 0.112
NCI-H1703; first compound 0.05 µM
  relative viability: 0.139
NCI-H1703; first compound 0.1581 µM
  relative viability: 0.143
NCI-H1703; first compound 0.5 µM
  relative viability: 0.118
HCC-44; first compound 0.005 µM
  relative viability: 0.996
HCC-44; first compound 0.01581 µM
  relative viability: 0.963
HCC-44; first compound 0.05 µM
  relative viability: 1.01
HCC-44; first compound 0.1581 µM
  relative viability: 1.09
HCC-44; first compound 0.5 µM
  relative viability: 1.01
LOU-NH91; first compound 0.005 µM
  relative viability: 0.712
LOU-NH91; first compound 0.01581 µM
  relative viability: 0.77
LOU-NH91; first compound 0.05 µM
  relative viability: 0.753
LOU-NH91; first compound 0.1581 µM
  relative viability: 0.734
LOU-NH91; first compound 0.5 µM
  relative viability: 0.701
LXF-289; first compound 0.005 µM
  relative viability: 1.05
LXF-289; first compound 0.01581 µM
  relative viability: 1.03
LXF-289; first compound 0.05 µM
  relative viability: 1.09
LXF-289; first compound 0.1581 µM
  relative viability: 1.21
LXF-289; first compound 0.5 µM
  relative viability: 1.06
NCI-H1648; first compound 0.005 µM
  relative viability: 0.666
NCI-H1648; first compound 0.01581 µM
  relative viability: 0.708
NCI-H1648; first compound 0.05 µM
  relative viability: 0.693
NCI-H1648; first compound 0.1581 µM
  relative viability: 0.585
NCI-H1648; first compound 0.5 µM
  relative viability: 0.695
HCC-366; first compound 0.005 µM
  relative viability: 0.333
HCC-366; first compound 0.01581 µM
  relative viability: 0.245
HCC-366; first compound 0.05 µM
  relative viability: 0.35
HCC-366; first compound 0.1581 µM
  relative viability: 0.362
HCC-366; first compound 0.5 µM
  relative viability: 0.25
NCI-H1437; first compound 0.005 µM
  relative viability: 1.12
NCI-H1437; first compound 0.01581 µM
  relative viability: 1.16
NCI-H1437; first compound 0.05 µM
  relative viability: 1.07
NCI-H1437; first compound 0.1581 µM
  relative viability: 1.17
NCI-H1437; first compound 0.5 µM
  relative viability: 1.04
NCI-H2085; first compound 0.005 µM
  relative viability: 0.881
NCI-H2085; first compound 0.01581 µM
  relative viability: 0.862
NCI-H2085; first compound 0.05 µM
  relative viability: 1.05
NCI-H2085; first compound 0.1581 µM
  relative viability: 0.912
NCI-H2085; first compound 0.5 µM
  relative viability: 0.887
